Data on 15 compounds can be found in US20090042773A1, “P13 kinase gamma inhibitors for the treatment of anaemia” (priority 2004, published 2009).

Experiment [1] deals with Mobilized CD34 positive stem cells. Nature of the experiment: EPO induced erythrocyte formation (stem cell culture, colony assay, flow cytometry). Type of experiment: cell-based. The text has this:
b) EPO Induced Erythrocyte Formation:
Investigation of the effect of PI3K inhibitors on the differentiation of red cell population, but also on the expansion of undifferentiated stem cells. Two different culture systems. A and B, were explored.
Culture System A (Containing No IL-3):
Differentiation of bone-marrow derived stem cells into the red cell line only. Semi-optimal systems in respect of the expansion of colony forming units, because of the lack of IL3 and other early acting growth factors.
The culture conditions are: IMDM-culture medium, 30% pre-selected fetal calf serum, 1% BSA, Glutamine 40 ug/ml iron saturated transferin, 10−6 Mol Mercaptoethanol, 10 ng/ml SCF, 100 U/ml IL6, 7 U Epo.
Culture System B (Containing IL-3):
Colony forming unit assay. […]
Colony forming units and the expression of Glycophorin A (marker) on the cell surface were used as markers for stem cell erythropoesis. Additionally, the presence of the cell surface antigen CD34 was also monitored to assess the differentiation status of the in vitro expanded cell lineage.
Relative expansion rate of GlyA-positive cells: At day 0, the stage of differentiation only few, if any cells, are GlyA positive. […] The expansion rate is calculated as the absolute number of GlyA-positive cells at the time point of interest divided by the absolute number of GlyA-positive cells in the starting material.
In general terms: Flow cytometry measures light scatter and fluorescence of single cells or particles in a stream.

The target in experiment [2] is Human recombinant GST-PI3Kγ (Homo sapiens, UniProt P48736).
Human recombinant GST-PI3Kγ, sequence (P48736 whole entry): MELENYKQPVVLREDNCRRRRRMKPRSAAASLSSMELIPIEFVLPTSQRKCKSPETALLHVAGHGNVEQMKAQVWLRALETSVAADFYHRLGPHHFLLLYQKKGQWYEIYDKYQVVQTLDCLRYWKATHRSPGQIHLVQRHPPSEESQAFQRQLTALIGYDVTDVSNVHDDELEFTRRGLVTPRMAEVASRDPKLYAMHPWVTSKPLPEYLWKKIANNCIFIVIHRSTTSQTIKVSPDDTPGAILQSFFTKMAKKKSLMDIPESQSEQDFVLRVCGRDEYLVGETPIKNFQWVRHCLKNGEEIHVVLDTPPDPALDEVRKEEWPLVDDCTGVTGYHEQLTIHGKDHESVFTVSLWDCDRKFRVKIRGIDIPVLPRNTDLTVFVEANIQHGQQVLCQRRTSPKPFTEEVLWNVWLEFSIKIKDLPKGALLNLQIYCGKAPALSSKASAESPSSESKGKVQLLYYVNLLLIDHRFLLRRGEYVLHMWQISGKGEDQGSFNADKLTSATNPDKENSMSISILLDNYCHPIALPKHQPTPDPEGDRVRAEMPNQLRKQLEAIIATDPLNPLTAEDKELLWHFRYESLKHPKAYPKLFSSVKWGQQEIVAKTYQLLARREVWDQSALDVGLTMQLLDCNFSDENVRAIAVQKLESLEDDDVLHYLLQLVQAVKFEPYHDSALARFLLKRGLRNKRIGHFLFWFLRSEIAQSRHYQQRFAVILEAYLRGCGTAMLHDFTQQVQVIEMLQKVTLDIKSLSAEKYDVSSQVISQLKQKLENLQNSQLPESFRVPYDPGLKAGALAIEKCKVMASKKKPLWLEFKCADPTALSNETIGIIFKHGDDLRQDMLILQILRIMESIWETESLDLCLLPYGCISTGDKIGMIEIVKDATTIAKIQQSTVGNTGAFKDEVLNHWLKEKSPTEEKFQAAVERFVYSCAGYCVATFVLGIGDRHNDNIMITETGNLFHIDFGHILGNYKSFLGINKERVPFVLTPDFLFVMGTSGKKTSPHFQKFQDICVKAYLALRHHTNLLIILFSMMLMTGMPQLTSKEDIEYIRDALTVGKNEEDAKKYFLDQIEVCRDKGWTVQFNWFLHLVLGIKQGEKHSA
Experiment [3] addresses Human recombinant GST-PI3Kα (Homo sapiens, UniProt P42336).
In experiment [4] the target is T1, Human recombinant GST-PI3Kδ (Homo sapiens, UniProt O00329).
T1 sequence (O00329 1-1044): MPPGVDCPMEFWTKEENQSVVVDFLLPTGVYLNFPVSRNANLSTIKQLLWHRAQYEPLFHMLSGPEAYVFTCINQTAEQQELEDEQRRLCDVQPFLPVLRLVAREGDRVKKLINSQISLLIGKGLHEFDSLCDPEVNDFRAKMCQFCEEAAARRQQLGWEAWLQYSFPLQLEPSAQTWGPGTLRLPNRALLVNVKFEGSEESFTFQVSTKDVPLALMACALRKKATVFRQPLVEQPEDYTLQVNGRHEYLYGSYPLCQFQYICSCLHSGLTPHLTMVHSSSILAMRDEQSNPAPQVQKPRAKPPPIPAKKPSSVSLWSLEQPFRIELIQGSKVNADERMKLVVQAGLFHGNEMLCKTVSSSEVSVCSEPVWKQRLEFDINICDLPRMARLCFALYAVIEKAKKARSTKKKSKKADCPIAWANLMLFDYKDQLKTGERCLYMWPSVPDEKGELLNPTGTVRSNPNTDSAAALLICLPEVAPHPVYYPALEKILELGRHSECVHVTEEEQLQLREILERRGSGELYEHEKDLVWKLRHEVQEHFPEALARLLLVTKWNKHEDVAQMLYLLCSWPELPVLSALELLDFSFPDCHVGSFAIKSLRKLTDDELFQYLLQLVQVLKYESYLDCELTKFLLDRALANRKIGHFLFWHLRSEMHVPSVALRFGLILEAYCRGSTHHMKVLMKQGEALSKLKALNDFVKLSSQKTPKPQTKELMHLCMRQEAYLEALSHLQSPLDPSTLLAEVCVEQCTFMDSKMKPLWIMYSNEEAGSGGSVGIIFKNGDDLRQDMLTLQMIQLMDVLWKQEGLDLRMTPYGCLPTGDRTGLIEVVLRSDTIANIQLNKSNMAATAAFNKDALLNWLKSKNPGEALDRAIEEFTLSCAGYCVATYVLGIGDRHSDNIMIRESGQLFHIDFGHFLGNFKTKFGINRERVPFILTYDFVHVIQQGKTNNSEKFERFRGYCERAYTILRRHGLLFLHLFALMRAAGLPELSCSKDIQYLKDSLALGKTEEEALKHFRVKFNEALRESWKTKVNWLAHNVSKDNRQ

For experiment [5], the system named is CD34+ progenitor cells. The conditions noted are these: Myklebust et al., Experimental Hematology 30 (2002), 990; cited from earlier work.
The test system of experiment [6] is K562 erythroleukemia cells. The conditions noted are these: Neri et al., Cellular Signalling 14 (2002) 21; cited from earlier work.

Human recombinant GST-PI3Kα, sequence (P42336 whole entry): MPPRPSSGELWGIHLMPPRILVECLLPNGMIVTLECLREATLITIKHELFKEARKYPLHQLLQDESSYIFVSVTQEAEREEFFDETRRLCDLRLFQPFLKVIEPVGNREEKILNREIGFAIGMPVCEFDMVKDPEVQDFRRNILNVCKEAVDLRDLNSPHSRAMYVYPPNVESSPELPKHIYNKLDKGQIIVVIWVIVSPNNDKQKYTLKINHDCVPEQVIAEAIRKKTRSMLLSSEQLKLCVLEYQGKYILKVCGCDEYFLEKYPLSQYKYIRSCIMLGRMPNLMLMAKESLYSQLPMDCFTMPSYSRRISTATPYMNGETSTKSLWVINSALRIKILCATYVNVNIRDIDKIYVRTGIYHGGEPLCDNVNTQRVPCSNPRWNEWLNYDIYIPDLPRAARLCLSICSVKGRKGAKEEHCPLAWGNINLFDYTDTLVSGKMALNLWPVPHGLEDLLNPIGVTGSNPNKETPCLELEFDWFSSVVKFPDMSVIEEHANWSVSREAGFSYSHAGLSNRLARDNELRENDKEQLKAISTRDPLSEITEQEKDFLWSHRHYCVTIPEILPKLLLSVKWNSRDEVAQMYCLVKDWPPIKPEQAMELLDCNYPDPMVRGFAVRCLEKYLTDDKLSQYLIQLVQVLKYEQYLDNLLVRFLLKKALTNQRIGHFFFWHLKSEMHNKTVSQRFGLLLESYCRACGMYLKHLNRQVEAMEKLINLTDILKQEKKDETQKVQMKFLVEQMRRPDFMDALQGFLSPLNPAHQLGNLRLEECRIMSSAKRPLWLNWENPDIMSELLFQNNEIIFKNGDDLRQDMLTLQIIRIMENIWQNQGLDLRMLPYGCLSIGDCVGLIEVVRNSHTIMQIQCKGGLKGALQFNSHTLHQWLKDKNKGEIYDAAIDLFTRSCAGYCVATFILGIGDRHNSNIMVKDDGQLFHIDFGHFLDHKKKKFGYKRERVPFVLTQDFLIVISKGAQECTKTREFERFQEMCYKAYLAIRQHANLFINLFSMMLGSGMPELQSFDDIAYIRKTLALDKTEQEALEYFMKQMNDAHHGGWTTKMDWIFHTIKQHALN

Regarding `O=C1NC(=O)C(=Cc2ccc3c(c2)OCO3)S1` [Example 1, 5-(1,3-benzodioxol-5-ylmethylene)-1,3-thiazolidine-2,4-dione], the “increase of the expansion of nucleated cells over the control” value in experiment [1] (in 13 days, compound added at day 1) amounted to 4 fold. In experiment [1] (same culture, 13 days), the cell proliferation result is listed as “not enhanced”. The IC50 in experiment [2] came out at 70 nM; in experiment [3], 250 nM; in experiment [4], 1700 nM.

Regarding `O=C1NC(=S)SC1=Cc1ccc2c(c1)OCO2` [Example 2, 5-(1,3-benzodioxol-5-ylmethylene)-2-thioxo-1,3-thiazolidin-4-one], the IC50 in experiment [2] was found to be 115 nM; in experiment [3], 450 nM.

For `O=C1NC(=O)C(=Cc2ccc3c(c2)OCCO3)S1` [Example 3, 5-(2,3-dihydro-1,4-benzodioxin-6-ylmethylene)-1,3-thiazolidine-2,4-dione], the values for the IC50 in experiment [2] and in experiment [3] were 50 nM and 310 nM, respectively.

For the compound `O=C1NC(=O)C(=Cc2ccc3c(c2)C(=O)c2ccccc2C3=O)S1` [Example 4, 5-[(9,10-dioxo-9,10-dihydroanthracen-2-yl)methylene]-1,3-thiazolidine-2,4-dione], the IC50 is 316 nM in experiment [2], 1370 nM in experiment [3] and 4870 nM in experiment [4].

With `CN1C(=O)COc2ccc(C=C3SC(=O)NC3=O)cc21` [Example 6, 5-[(4-methyl-3-oxo-3,4-dihydro-2H-1,4-benzoxazin-6-yl)methylene]-1,3-thiazolidine-2,4-dione], the values for the IC50 in experiment [2] and in experiment [3] were 30 nM and 170 nM, respectively.

As for `N=C1NC(=O)C(=Cc2ccc3c(c2)OCO3)S1` [Example 7, 5-(1,3-benzodioxol-5-ylmethylene)-2-imino-1,3-thiazolidin-4-one], the IC50 in experiment [2] was 710 nM.

In the case of `Cc1coc2ccc(C=C3SC(=O)NC3=O)cc12` [Example 8, 5-(3-Methyl-benzofuran-5-ylmethylene)-thiazolidine-2,4-dione], the IC50 in experiment [2] stood at 30 nM; in experiment [3] it was 135 nM; in experiment [4], 1970 nM.

Take `O=C(O)C=Cc1coc2ccc(C=C3SC(=O)NC3=O)cc12` [Example 9, 3-[5-(2,4-Dioxo-thiazolidin-5-ylidenemethyl)benzofuran-3-yl]-acrylic acid]: the IC50 was 8 nM in experiment [2], 32 nM in experiment [3] and 2480 nM in experiment [4].

As for `O=C1NC(=O)C(=Cc2ccc3c(c2)NCCO3)S1` [Example 10, 5-(3,4-Dihydro-2H-benzo[1,4]oxazin-6-ylmethylene)-thiazolidine-2,4-dione], the results for the concentration for half-maximal inhibition (IC50) in experiment [2] and in experiment [3] were 590 nM and 2100 nM, respectively.

With `Nc1noc2ccc(C=C3SC(=O)NC3=O)cc12` [Example 11, 5-(3-Amino-benzo[d]isoxazol-5-ylmethylene)thiazolidine-2,4-dione], the concentration for half-maximal inhibition (IC50) in experiment [2] was 95 nM; in experiment [3], 460 nM; in experiment [4] it was 10000 nM.

For `O=C1NC(=O)C(=Cc2ccc3nonc3c2)S1` [Example 12, 5-Benzo[1,2,5]oxadiazol-5-ylmethylene-thiazolidine-2,4-ione], the IC50 in experiment [2] is 35 nM; in experiment [3] it was 370 nM; in experiment [4], 2730 nM.

As to `O=C1NC(=O)C(=Cc2ccc3cc(F)oc3c2)S1` [Example 13, 5-(2-Fluoro-benzofuran-6-ylmethylene)-thiazolidine-2,4-dione], the IC50 in experiment [2] amounted to 290 nM; in experiment [3] it was 1200 nM.

In the case of `N#CN=C1NC(=O)C(=Cc2ccc3c(c2)OCO3)S1` [Example 14, 5-Benzo[1,3]dioxol-5-ylmethylene-4-oxo-thiazolidin-2-ylidene-cyanamide], the values for the half-maximal inhibitory concentration (IC50) in experiment [2], in experiment [3] and in experiment [4] were 21 nM, 231 nM and 1170 nM, respectively.

In the case of `O=c1cc(N2CCOCC2)oc2c(-c3ccccc3)cccc12` [LY294002], the “effect on EPO induced erythropoiesis from CD34+ progenitor cells” value in experiment [5] is on record as “inhibit EPO induced erythropoiesis”.

Turning to `COC[C@H]1OC(=O)c2coc3c2[C@@]1(C)C1=C(C3=O)[C@@H]2CCC(=O)[C@@]2(C)C[C@H]1OC(C)=O` [Wortmannin, wortmannin], in experiment [6], the “effect on EPO induced erythroid differentiation of K562 cells” value is “prevents K562 erythroleukemia cells from EPO induced erythroid differentiation”.

What is called IC50 is the concentration needed to halve the response being measured.
